Results on one compound are retold here after article PMC10296061, “Inhibition of the Mitochondrial Carnitine/Acylcarnitine Carrier by Itaconate through Irreversible Binding to Cysteine 136: Possible Pathophysiological Implications” (Biomolecules, 2023).

Changes are numbered by the printed parent chain.

The target in test [1] is T1, native mitochondrial carnitine/acylcarnitine carrier (CAC) (Rattus norvegicus, UniProt P97521).
T1 construct: from tissue; host or cells: rat liver mitochondria
T1 sequence (P97521 1-301): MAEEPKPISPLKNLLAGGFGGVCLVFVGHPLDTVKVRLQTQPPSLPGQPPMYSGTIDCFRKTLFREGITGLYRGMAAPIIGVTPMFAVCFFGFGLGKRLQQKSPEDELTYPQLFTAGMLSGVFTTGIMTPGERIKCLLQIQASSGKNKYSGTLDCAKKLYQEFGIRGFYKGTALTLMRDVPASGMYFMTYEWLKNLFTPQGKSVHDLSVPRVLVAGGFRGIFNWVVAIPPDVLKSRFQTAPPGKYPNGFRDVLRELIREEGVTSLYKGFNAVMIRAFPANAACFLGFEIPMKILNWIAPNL
In words: [3H]carnitine/carnitine antiport in proteoliposomes reconstituted with native CAC from rat liver mitochondria. The settings on record: 10 min incubation, 0.1 mM [3H]carnitine, pH 7.0, read-out: IC50 for itaconate inhibition of [3H]carnitine/carnitine antiport. In kind it is biochemical. The source says: (§1) As previously described, recombinant CAC (WT and mutants) and ORC1 proteins were used for proteoliposome formation. For experiments with native CAC, ORC1, or ANT proteins, rat liver mitochondria, or HeLa cell mitochondria, the latter for the CAC alone, were first purified using the standard procedure of cell disruption and differential centrifugation. Then proteins were extracted using 3% Triton X-100 and reconstituted as described for the recombinant proteins. The concentration of intraliposomal carnitine and ornithine was 15 mM and 30 mM, respectively, in all samples.
To test the transport activity of the CAC, 550 μL of proteoliposomes was passed through a Sephadex G-75 column to remove the external substrate. Six hundred μL of the turbid eluate was collected, divided into samples of 100 μL each, and used for transport measurement by the inhibitor-stop method. Transport was started by adding 0.1 mM [^3H]carnitine ([^3H]ornitine or [^3H]ATP) to proteoliposome samples and stopped with 1.5 mM NEM (N-ethylmaleimide) at the indicated time interval. […] Transport rates were measured in 10 min, i.e., within the initial linear range of the time course, at 25 °C. After terminating the transport reaction, the external substrate was removed by chromatography on the Sephadex G-75 column, and the intraliposomal radioactivity was measured. […]

Test [2] addresses T2, CAC C23V/C58V/C89S/C136V/C155V/C283S (C-less) mutant (Rattus norvegicus, UniProt P97521, C136V/C155V/C23V/C283S/C58V/C89S).
T2 construct: made in house; host or cells: E. coli C0214
T2 sequence (P97521 1-301 C23V/C58V/C89S/C136V/C155V/C283S): T1 sequence (P97521 1-301) with C23V, C58V, C89S, C136V, C155V, C283S
In words: Transport assay in proteoliposomes, C-less CAC mutant. Format: biochemical. On the procedure: As previously described, the pMW7-WTratCAC recombinant plasmid was used for over-expressing the rat CAC [22]. The overlap extension method was used to introduce the mutations; in the main time, NdeI and HindIII restriction sites were also added using appropriate primers. The PCR products were purified by the QIAEX II Gel Extraction Kit (QIAGEN) and digested with NdeI and HindIII and then ligated into the pMW7. All mutations were verified by DNA sequencing. The resulting plasmid constructs were transformed into E. coli C0214. Overexpression, inclusion body fraction preparation, and purification of the CAC proteins were performed as previously described.
as §1
To test the transport activity of the CAC, 550 μL of proteoliposomes was passed through a Sephadex G-75 column to remove the external substrate. Six hundred μL of the turbid eluate was collected, divided into samples of 100 μL each, and used for transport measurement by the inhibitor-stop method. Transport was started by adding 0.1 mM [^3H]carnitine ([^3H]ornitine or [^3H]ATP) to proteoliposome samples and stopped with 1.5 mM NEM (N-ethylmaleimide) at the indicated time interval. In the control samples, NEM was added with the labeled substrate at time zero. Transport rates were measured in 10 min, i.e., within the initial linear range of the time course, at 25 °C. After terminating the transport reaction, the external substrate was removed by chromatography on the Sephadex G-75 column, and the intraliposomal radioactivity was measured. The experimental values were corrected by subtracting the controls.
Figure 3 Identification of residue responsible for itaconate inhibition. (a) Dose–response analysis of the Cys mutants of CAC for the inhibition by itaconate was performed. Transport activity of the WT (○), C136A (●), C155A (Δ), C23V/C58V/C89S/C155V/C283S (▲), and C23V/C58V/C89S/C136V/C155V/C283S (□) was measured by adding 0.1 mM [^3H]carnitine after treatment by itaconate at the indicated concentrations. Transport activity (µmol/10 min/mg) is: WT 1.80 ± 0.31; C136A 0.91 ± 0.10; C155A 1.00 ± 0.17; C23V/C58V/C89S/C155V/C283S 1.02 ± 0.159; C23V/C58V/C89S/C136V/C155V/C283S 0.71 ± 0.22. (b) Dose–response analysis of proteoliposomes reconstituted native (○) or recombinant ORC (●) incubated with itaconate at the indicated concentrations. Transport activity was measured by adding 0.1 [^3H]ornithine, respectively, as described in Materials and Methods. The data are expressed as a percent of the controls (no addition of itaconate) and are means ± SD from three independent experiments.
Figure 4 Lysine contribution to CAC inhibition by itaconate. Protection of PLP (pyridoxal phosphate) from inhibition by itaconate on C-less CAC was carried out. C-less mutant (i.e., C23V/C58V/C89S/C136V/C155V/C283S) was reconstituted into proteoliposomes and treated or not treated with 30 mM PLP for 10 min (“Contr” or “PLP” column, respectively). […]

Regarding `C=C(CC(=O)O)C(=O)O` [itaconate], the IC50 in test [1] stood at 11 ± 4.6 mM; in test [2] (C-less mutant, read-out: IC50 for itaconate inhibition), 15 ± 2.4 mM. Also, the “effect on PLP pretreated (protected) C-less CAC” value in test [2] (15 mM itaconate added to 30 mM PLP pretreated protein, reactants removed by G-75) is “inefficacy”. Besides, in test [2] (15 mM itaconate, no PLP preincubation), the “effect on C-less CAC transport” value is “inhibited”.
